Laboratory results published in patent publication US12691112B2, “FGFR tyrosine kinase inhibitors for the treatment of urothelial carcinoma” (Janssen Pharmaceutica NV, priority 2019, dated 2026).
Where two headings read alike, the source gives them in different places.

System: subjects with metastatic or surgically unresectable urothelial cancer
Settings: all-causality
Description: Study treatment was administered on 28-day cycles. […] Patients were randomized 1:1 to 28-day cycles to the following 2 regimens until a regimen was selected for further study: Regimen 1 (10 mg once daily intermittent (7 days on/7 days); Regimen 2 (6 mg once daily continuous). Randomization was stratified according to performance status (0 to 1 vs. 2), hemoglobin value (<10 vs. ≥10 g per dl), FGFR alteration type (mutation vs. fusion), prior treatment status (chemotherapy-resistant vs. chemotherapy naïve), and disease distribution (presence or absence of visceral [liver, lung, bone]metastases). Starting dose selection was based on phase 1 efficacy and tolerability.
Based on interim analysis and pharmacokinetic-pharmacodynamic modeling of serum phosphate levels, starting dose was increased to 8 mg per day continuous (Regimen 3). Thus, after interim analysis, this became a single-arm study. […] Treatment continued until disease progression or unacceptable adverse event(s) per investigator.
Safety was evaluated based on clinical laboratory tests, physical exams, electrocardiograms, and ophthalmology examinations. Adverse events and abnormalities were assessed by investigator and graded per NCI CTCAE v.4.0
Prophylactic measures were taken to minimize risk of common adverse events related to FGFR inhibition. To reduce risk of hyperphosphatemia, a low-phosphate diet was recommended for all patients (600 to 800 mg of dietary phosphate intake per day). To reduce the risk of skin effects, the application of alcohol-free emollient moisturizing cream and avoidance of unnecessary exposure to sunlight, soap, perfumed products, and hot baths was recommended. Patients were asked to keep their fingers and toes clean and nails trimmed to reduce risk of nail effects.
Additional ophthalmology examinations were performed if clinically indicated.

COc1cc(OC)cc(N(CCNC(C)C)c2ccc3ncc(-c4cnn(C)c4)nc3c2)c1 [erdafitinib, N-(3,5-dimethoxy-phenyl)-N′-(1-methylethyl)-N-[3-(1-methyl-1H-pyrazol-4-yl)quinoxalin-6-yl]ethane-1,2-diamine]
Conjunctivitis, grade ≥ 3 (6 mg continuous, n = 78): 1 no.
Constipation, any grade (6 mg continuous, n = 78): 20 no.
Constipation, grade 1 (6 mg continuous, n = 78): 10 no.
Constipation, grade 2 (6 mg continuous, n = 78): 10 no.
Constipation, grade ≥ 3 (6 mg continuous, n = 78): 0 no.
Decreased appetite, any grade (6 mg continuous, n = 78): 29 no.
Decreased appetite, grade 1 (6 mg continuous, n = 78): 12 no.
Decreased appetite, grade 2 (6 mg continuous, n = 78): 13 no.
Decreased appetite, grade ≥ 3 (6 mg continuous, n = 78): 4 no.
Diarrhea, any grade (6 mg continuous, n = 78): 39 no.
Diarrhea, grade 1 (6 mg continuous, n = 78): 24 no.
Diarrhea, grade 2 (6 mg continuous, n = 78): 15 no.
Diarrhea, grade ≥ 3 (6 mg continuous, n = 78): 0 no.
Dry eye, any grade (6 mg continuous, n = 78): 6 no.
Dry eye, grade 1 (6 mg continuous, n = 78): 3 no.
Dry eye, grade 2 (6 mg continuous, n = 78): 2 no.
Dry eye, grade ≥ 3 (6 mg continuous, n = 78): 1 no.
Dry mouth, any grade (6 mg continuous, n = 78): 31 no.
Dry mouth, grade 1 (6 mg continuous, n = 78): 23 no.
Dry mouth, grade 2 (6 mg continuous, n = 78): 6 no.
Dry mouth, grade ≥ 3 (6 mg continuous, n = 78): 2 no.
Dry skin, any grade (6 mg continuous, n = 78): 18 no.
Dry skin, grade 1 (6 mg continuous, n = 78): 10 no.
Dry skin, grade 2 (6 mg continuous, n = 78): 8 no.
Dry skin, grade ≥ 3 (6 mg continuous, n = 78): 0 no.
Dysgeusia, any grade (6 mg continuous, n = 78): 10 no.
Dysgeusia, grade 1 (6 mg continuous, n = 78): 6 no.
Dysgeusia, grade 2 (6 mg continuous, n = 78): 4 no.
Dysgeusia, grade ≥ 3 (6 mg continuous, n = 78): 0 no.
Dyspepsia, any grade (6 mg continuous, n = 78): 9 no.
Dyspepsia, grade 1 (6 mg continuous, n = 78): 6 no.
Dyspepsia, grade 2 (6 mg continuous, n = 78): 3 no.
Dyspepsia, grade ≥ 3 (6 mg continuous, n = 78): 0 no.
Dyspnea, any grade (6 mg continuous, n = 78): 6 no.
Dyspnea, grade 1 (6 mg continuous, n = 78): 1 no.
Dyspnea, grade 2 (6 mg continuous, n = 78): 3 no.
Dyspnea, grade ≥ 3 (6 mg continuous, n = 78): 2 no.
Fatigue, any grade (6 mg continuous, n = 78): 20 no.
Fatigue, grade 1 (6 mg continuous, n = 78): 8 no.
Fatigue, grade 2 (6 mg continuous, n = 78): 8 no.
Fatigue, grade ≥ 3 (6 mg continuous, n = 78): 4 no.
Hand-foot syndrome, any grade (6 mg continuous, n = 78): 13 no.
Hand-foot syndrome, grade 1 (6 mg continuous, n = 78): 4 no.
Hand-foot syndrome, grade 2 (6 mg continuous, n = 78): 9 no.
Hand-foot syndrome, grade ≥ 3 (6 mg continuous, n = 78): 0 no.
Hematuria, any grade (6 mg continuous, n = 78): 6 no.
Hematuria, grade 1 (6 mg continuous, n = 78): 5 no.
Hematuria, grade 2 (6 mg continuous, n = 78): 0 no.
Hematuria, grade ≥ 3 (6 mg continuous, n = 78): 1 no.
Hyperphosphatemia, any grade (6 mg continuous, n = 78): 52 no.
Hyperphosphatemia, grade 1 (6 mg continuous, n = 78): 44 no.
Hyperphosphatemia, grade 2 (6 mg continuous, n = 78): 8 no.
Hyperphosphatemia, grade ≥ 3 (6 mg continuous, n = 78): 0 no.
Hypomagnesemia, any grade (6 mg continuous, n = 78): 6 no.
Hypomagnesemia, grade 1 (6 mg continuous, n = 78): 6 no.
Hypomagnesemia, grade 2 (6 mg continuous, n = 78): 0 no.
Hypomagnesemia, grade ≥ 3 (6 mg continuous, n = 78): 0 no.
Hyponatremia, any grade (6 mg continuous, n = 78): 7 no.
Hyponatremia, grade 1 (6 mg continuous, n = 78): 2 no.
Hyponatremia, grade 2 (6 mg continuous, n = 78): 0 no.
Hyponatremia, grade ≥ 3 (6 mg continuous, n = 78): 5 no.
Insomnia, any grade (6 mg continuous, n = 78): 8 no.
Insomnia, grade 1 (6 mg continuous, n = 78): 4 no.
Insomnia, grade 2 (6 mg continuous, n = 78): 2 no.
Insomnia, grade ≥ 3 (6 mg continuous, n = 78): 2 no.
Lacrimation increased, any grade (6 mg continuous, n = 78): 13 no.
Lacrimation increased, grade 1 (6 mg continuous, n = 78): 10 no.
Lacrimation increased, grade 2 (6 mg continuous, n = 78): 3 no.
Lacrimation increased, grade ≥ 3 (6 mg continuous, n = 78): 0 no.
Nail dystrophy, any grade (6 mg continuous, n = 78): 7 no.
Nail dystrophy, grade 1 (6 mg continuous, n = 78): 6 no.
Nail dystrophy, grade 2 (6 mg continuous, n = 78): 1 no.
Nail dystrophy, grade ≥ 3 (6 mg continuous, n = 78): 0 no.
Nausea, any grade (6 mg continuous, n = 78): 16 no.
Nausea, grade 1 (6 mg continuous, n = 78): 11 no.
Nausea, grade 2 (6 mg continuous, n = 78): 4 no.
Nausea, grade ≥ 3 (6 mg continuous, n = 78): 1 no.
Onycholysis, any grade (6 mg continuous, n = 78): 13 no.
Onycholysis, grade 1 (6 mg continuous, n = 78): 2 no.
Onycholysis, grade 2 (6 mg continuous, n = 78): 6 no.
Onycholysis, grade ≥ 3 (6 mg continuous, n = 78): 5 no.
Onychomadesis, any grade (6 mg continuous, n = 78): 8 no.
Onychomadesis, grade 1 (6 mg continuous, n = 78): 2 no.
Onychomadesis, grade 2 (6 mg continuous, n = 78): 6 no.
Onychomadesis, grade ≥ 3 (6 mg continuous, n = 78): 0 no.
Oropharyngeal pain, any grade (6 mg continuous, n = 78): 8 no.
Oropharyngeal pain, grade 1 (6 mg continuous, n = 78): 5 no.
Oropharyngeal pain, grade 2 (6 mg continuous, n = 78): 3 no.
Oropharyngeal pain, grade ≥ 3 (6 mg continuous, n = 78): 0 no.
Pain in extremity, any grade (6 mg continuous, n = 78): 9 no.
Pain in extremity, grade 1 (6 mg continuous, n = 78): 2 no.
Pain in extremity, grade 2 (6 mg continuous, n = 78): 6 no.
Pain in extremity, grade ≥ 3 (6 mg continuous, n = 78): 1 no.
Paronychia, any grade (6 mg continuous, n = 78): 12 no.
Paronychia, grade 1 (6 mg continuous, n = 78): 2 no.
Paronychia, grade 2 (6 mg continuous, n = 78): 10 no.
Paronychia, grade ≥ 3 (6 mg continuous, n = 78): 0 no.
Peripheral edema, any grade (6 mg continuous, n = 78): 6 no.
Peripheral edema, grade 1 (6 mg continuous, n = 78): 2 no.
Peripheral edema, grade 2 (6 mg continuous, n = 78): 3 no.
Peripheral edema, grade ≥ 3 (6 mg continuous, n = 78): 1 no.
Pyrexia, any grade (6 mg continuous, n = 78): 14 no.
Pyrexia, grade 1 (6 mg continuous, n = 78): 8 no.
Pyrexia, grade 2 (6 mg continuous, n = 78): 3 no.
Pyrexia, grade ≥ 3 (6 mg continuous, n = 78): 3 no.
Retinal detachment, any grade (6 mg continuous, n = 78): 8 no.
Retinal detachment, grade 1 (6 mg continuous, n = 78): 5 no.
Retinal detachment, grade 2 (6 mg continuous, n = 78): 3 no.
Retinal detachment, grade ≥ 3 (6 mg continuous, n = 78): 0 no.
Stomatitis, any grade (6 mg continuous, n = 78): 33 no.
Stomatitis, grade 1 (6 mg continuous, n = 78): 13 no.
Stomatitis, grade 2 (6 mg continuous, n = 78): 13 no.
Stomatitis, grade ≥ 3 (6 mg continuous, n = 78): 7 no.
Urinary tract infection, any grade (6 mg continuous, n = 78): 13 no.
Urinary tract infection, grade 1 (6 mg continuous, n = 78): 0 no.
Urinary tract infection, grade 2 (6 mg continuous, n = 78): 9 no.
Urinary tract infection, grade ≥ 3 (6 mg continuous, n = 78): 4 no.
Vision blurred, any grade (6 mg continuous, n = 78): 5 no.
Vision blurred, grade 1 (6 mg continuous, n = 78): 3 no.
Vision blurred, grade 2 (6 mg continuous, n = 78): 1 no.
Vision blurred, grade ≥ 3 (6 mg continuous, n = 78): 1 no.
Vomiting, any grade (6 mg continuous, n = 78): 11 no.
Vomiting, grade 1 (6 mg continuous, n = 78): 9 no.
Vomiting, grade 2 (6 mg continuous, n = 78): 2 no.
Vomiting, grade ≥ 3 (6 mg continuous, n = 78): 0 no.
Weight decreased, any grade (6 mg continuous, n = 78): 8 no.
Weight decreased, grade 1 (6 mg continuous, n = 78): 4 no.
Weight decreased, grade 2 (6 mg continuous, n = 78): 2 no.
Weight decreased, grade ≥ 3 (6 mg continuous, n = 78): 2 no.
Abdominal pain, any grade (8 mg continuous, n = 99): 8 no.
Abdominal pain, grade 1 (8 mg continuous, n = 99): 5 no.
Abdominal pain, grade 2 (8 mg continuous, n = 99): 2 no.
Abdominal pain, grade ≥ 3 (8 mg continuous, n = 99): 1 no.
Alanine aminotransferase increased, any grade (8 mg continuous, n = 99): 17 no.
Alanine aminotransferase increased, grade 1 (8 mg continuous, n = 99): 13 no.
Alanine aminotransferase increased, grade 2 (8 mg continuous, n = 99): 2 no.
Alanine aminotransferase increased, grade ≥ 3 (8 mg continuous, n = 99): 2 no.
Alopecia, any grade (8 mg continuous, n = 99): 29 no.
Alopecia, grade 1 (8 mg continuous, n = 99): 23 no.
Alopecia, grade 2 (8 mg continuous, n = 99): 6 no.
Alopecia, grade ≥ 3 (8 mg continuous, n = 99): 0 no.
Anemia, any grade (8 mg continuous, n = 99): 20 no.
Anemia, grade 1 (8 mg continuous, n = 99): 9 no.
Anemia, grade 2 (8 mg continuous, n = 99): 7 no.
Anemia, grade ≥ 3 (8 mg continuous, n = 99): 4 no.
Arthralgia, any grade (8 mg continuous, n = 99): 8 no.
Arthralgia, grade 1 (8 mg continuous, n = 99): 5 no.
Arthralgia, grade 2 (8 mg continuous, n = 99): 3 no.
Arthralgia, grade ≥ 3 (8 mg continuous, n = 99): 0 no.
Aspartate aminotransferase increased, any grade (8 mg continuous, n = 99): 10 no.
Aspartate aminotransferase increased, grade 1 (8 mg continuous, n = 99): 8 no.
Aspartate aminotransferase increased, grade 2 (8 mg continuous, n = 99): 2 no.
Aspartate aminotransferase increased, grade ≥ 3 (8 mg continuous, n = 99): 0 no.
Asthenia, any grade (8 mg continuous, n = 99): 20 no.
Asthenia, grade 1 (8 mg continuous, n = 99): 2 no.
Asthenia, grade 2 (8 mg continuous, n = 99): 11 no.
Asthenia, grade ≥ 3 (8 mg continuous, n = 99): 7 no.
Back pain, any grade (8 mg continuous, n = 99): 5 no.
Back pain, grade 1 (8 mg continuous, n = 99): 4 no.
Back pain, grade 2 (8 mg continuous, n = 99): 1 no.
Back pain, grade ≥ 3 (8 mg continuous, n = 99): 0 no.
Blood creatinine increased, any grade (8 mg continuous, n = 99): 10 no.
Blood creatinine increased, grade 1 (8 mg continuous, n = 99): 5 no.
Blood creatinine increased, grade 2 (8 mg continuous, n = 99): 5 no.
Blood creatinine increased, grade ≥ 3 (8 mg continuous, n = 99): 0 no.
Conjunctivitis, any grade (8 mg continuous, n = 99): 13 no.
Conjunctivitis, grade 1 (8 mg continuous, n = 99): 6 no.
Conjunctivitis, grade 2 (8 mg continuous, n = 99): 7 no.
Conjunctivitis, grade ≥ 3 (8 mg continuous, n = 99): 0 no.
Constipation, any grade (8 mg continuous, n = 99): 28 no.
Constipation, grade 1 (8 mg continuous, n = 99): 19 no.
Constipation, grade 2 (8 mg continuous, n = 99): 8 no.
